Tests used:
[1] = tested on: Oca2-null (OCA2) melanocytes; assay: melanin assay in Oca2-null melanocytes; type: cell-based, mouse; details: for pigmentation (melanin level) in Oca2-null melanocytes: FIG. 1, harvested after 5 days, relative to DMSO vehicle
Method: (§1) Oca2-null cells were plated in 60 mm dishes for 24 hours followed by dosing with the indicated compounds. DMSO was used as a vehicle control (to establish the baseline for comparison). Cells were harvested after 5 days. Melanocytes were harvested in extraction buffer (50 mM Tris pH7.5, 2 mM EDTA, 150 mM NaCl) containing 1% Triton X-100 and protease inhibitors (Complete, Roche Indianapolis, Ind.) following two washes with 1× phosphate buffered saline (PBS). The lysate was centrifuged for 30 min at 13,000 rpm in a microfuge. The supernatant was removed and the protein concentration determined using a protein assay kit (BioRad, Richmond, Calif.). Three hundred μl of ethanol:ether (1:1) were added to the pellet, which was then vortexed. After incubation at room temperature for 10 min, the solvent was removed (leaving the melanin behind) and the ethanol:ether wash repeated without vortexing. The melanin was then dissolved in 2 N NaOH, 20% DMSO at 60-70° C. The optical density was determined at 490 nm. The value was normalized to protein concentration in the supernatant and expressed as a ratio of the melanin in the vehicle treated cells.
(§2) Cells were seeded in six-well plates in triplicate. After 24 hours, each cell line was treated with IBMX, forskolin or rapamycin, in addition, Oca2-null melanocytes were treated with bafilomycin. Plates were incubated for 72 hours. Melanocytes were harvested and a melanin assay performed as described above.
Oca2-null cells were plated in 60 mm dishes for 24 hours followed by dosing with the indicated compounds. DMSO was used as a vehicle control. […]
Selected compounds identified in the screen were tested using a traditional melanin assay in order to verify the findings of the screen. […] The supernatant was removed and the protein concentration determined using a protein assay kit (BioRad, Richmond, Calif.). […] The optical density was determined at 490 nm. The value was normalized to protein concentration in the supernatant and expressed as a ratio of the melanin in the untreated cells.

[2] = tested on: wildtype (WT) melanocytes; details: Ni-Komatsu et al. 2008 Mol Pharmacol; cited from earlier work
[3] = tested on: Oca3-null (OCA3) melanocytes; assay: melanin assay in Oca3-null melanocytes; type: cell-based, murine; details: FIG. 2; 72 hours; relative to vehicle
Method: as §1
Oca3-null melanocytes were seeded in six-well plates in triplicate. After 24 hours, each cell line was treated with vehicle, chloroquine or rapamycin. Plates were incubated for 72 hours. Melanocytes were harvested and a melanin assay performed as described above.

[4] = tested on: Oca2-null cells; assay: 96-well melanin absorbance screen with MTS cell proliferation assay; type: cell-based, mouse; details: library compounds at 5 and/or 1 μM; bafilomycin A1 as positive control
Method: The present inventors utilized the chemical genetics approach described herein to identify compounds that can be used to reverse the diminished pigmentation in Oca2-null cells. To this end, they first developed a 96-well assay system for rapid compound screening. Melanocytes were cultured in a 96-well plate in the presence of test compounds. Melanin content was determined by replacing the culture medium with PBS and measuring absorbance at 490 nm.
Following validation of their assay system, the present inventors performed a screen, treating Oca2-null cells with library compounds at concentrations of 5 and/or 1 μM. Each plate included untreated Oca2-null cells as negative controls and cells treated with bafilomycin A1 as positive controls. Compounds identified as potential hits were then re-screened to verify their ability to promote melanin synthesis in cells lacking functional Oca2 protein.

[5] = tested on: wildtype melanocytes; assay: toxicity to wildtype melanocytes; type: cell-based; details: even at nanomolar concentrations
[6] = tested on: Oca2-null melanocytes; assay: toxicity to Oca2-null melanocytes; type: cell-based, mouse; details: compared with wildtype melanocytes
[7] = tested on: wildtype (WT) melanocytes; assay: melanin assay in wildtype melanocytes; type: cell-based; details: FIG. 3; 72 hours
Method: as §2
Wildtype cells were plated in 24-well plates for 24 hours followed by dosing with the indicated compounds. DMSO was used as a vehicle control. Cells were harvested after 3 days and a melanin assay was performed as described above.
Selected compounds identified in the screen were tested using a traditional melanin assay in order to verify the findings of the screen. Following 3 (normal melanocytes) or 5 (mutant melanocytes) days of treatment, melanocytes were harvested in extraction buffer (50 mM Tris pH7.5, 2 mM EDTA, 150 mM NaCl) containing 1% Triton X-100 and protease inhibitors (Complete, Roche Indianapolis, Ind.) following two washes with 1× phosphate buffered saline (PBS). The lysate was centrifuged for 30 min at 13,000 rpm in a microfuge. The supernatant was removed and the protein concentration determined using a protein assay kit (BioRad, Richmond, Calif.). […] The optical density was determined at 490 nm. The value was normalized to protein concentration in the supernatant and expressed as a ratio of the melanin in the untreated cells.

[8] = tested on: melanoma cells; details: reported previously; by upregulating expression of tyrosinase; cited from earlier work

CCN(CC)CCCC(C)Nc1ccnc2cc(Cl)ccc12 (racemic) [chloroquine, (RS)—N′-(7-chloroquinolin-4-yl)-N,N-diethyl-pentane-1,4-diamine]
pigmentation (melanin level) in Oca2-null melanocytes [1]: increase pigmentation
pigmentation in normal melanocytes [2]: decrease pigmentation
pigmentation (melanin level) in Oca3-null melanocytes [3]: increase pigmentation

CO/C1=C\C(C)=C\[C@@H](C)[C@@H](O)[C@@H](C)C/C(C)=C/C=C/[C@H](OC)[C@@H]([C@@H](C)[C@@H](O)[C@H](C)[C@@]2(O)C[C@@H](O)[C@H](C)[C@@H](C(C)C)O2)OC1=O [Bafilomycin, bafilomycin A1]
melanin content of Oca2-null (OCA2) melanocytes ([1]; FIG. 3, 72 hours): increased the melanin content
pigmentation of Oca2-null cells in 96-well screen [4]: reverses the pigmentation phenotype
toxicity to wildtype melanocytes [5]: highly toxic
accompanying toxicity in Oca2-null melanocytes [6]: much less accompanying toxicity

CC(C)Cn1c(=O)n(C)c(=O)c2[nH]cnc21 [IBMX, 3-isobutyl-1-methylxanthine]
melanin content of wildtype (WT) melanocytes [7]: effective in increasing the melanin content

CO[C@H]1C[C@@H]2CC[C@@H](C)[C@@](O)(O2)C(=O)C(=O)N2CCCC[C@H]2C(=O)O[C@H]([C@H](C)C[C@@H]2CC[C@@H](O)[C@H](OC)C2)CC(=O)[C@H](C)/C=C(\C)[C@@H](O)[C@@H](OC)C(=O)[C@H](C)C[C@H](C)/C=C/C=C/C=C/1C [rapamycin, Rapamycin]
pigmentation (melanin level) in Oca2-null melanocytes [1]: increase pigmentation
pigmentation (melanin level) in Oca3-null melanocytes [3]: increase pigmentation
pigmentation in melanoma cells [8]: increase pigmentation

From patent US9717722B2, “Methods and agents for treating tyrosinase-positive albinism” (NEW YORK UNIVERSITY, priority 2013, dated 2017)
